Measured values published in patent US20250066290A1, “DHODH INHIBITORS CONTAINING A CARBOXYLIC ACID BIOISOSTERE” (IMMUNIC AG, priority 2021, published 2025).
Like-named read-outs stand apart in the source and are kept apart here.

Legend:
[1] = biological target: N-terminally truncated recombinant hDHODH enzyme (Homo sapiens, UniProt Q02127); assay: biochemical; type: biochemical
Procedure: Briefly, the hDHODH concentration was adjusted in a way that an average slope of approximately 0.2 AU/min served as the positive control (e.g. without inhibitor). The standard assay mixture contained 60 μM 2,6-dichloroindophenol, 50 μM decylubiquinone and 100 μM dihydroorotate. The hDHODH enzyme with or without at least six different concentrations of the compounds was added and measurements were performed in 50 mM TrisHCl, 150 mM KCl and 0.1% Triton X-100 at pH 8.0 and at 30° C. The reaction was started by adding dihydroorotate and measuring the absorption at 600 nm for 2 min. For the determination of the IC50 values, each data point was recorded in triplicate. […].

SARS-CoV-2 = SARS-CoV-2 viral replication (YFP) assay; type: cell-based; details: Severe acute respiratory syndrome coronavirus 2, read-out: EC50 range
[2] = Mouse pharmacokinetics, female, deuteration matched pair analysis; type: in vivo, mice (C57BL/6J); details: for AUC(0-t) / Cmax / half-life: C57BL/6J, mouse, in vivo; for AUC(0-t) / Cmax / F: female mice; for AUC(0-t): 0 to 8 h; for Cmax: 5 mg/kg oral, 1 mg/kg intravenous cassette; for F: bioavailability; for half-life: female
Procedure: In another matched pair analysis the benefit of deuteration of the N-methoxyacetamide moiety was tested: the pharmacokinetic properties of the compounds were evaluated in 3 female mice (C57BL/6J, 8 week old) after oral or intravenous cassette dosing to assess the oral bioavailability. Dose was 5 mg/kg (oral) and 1 mg/kg (intravenous), application volume was 5 mL/kg (oral) and 2 mL/kg (intravenous), vehicle was 5% solutol, 95% NaCl solution (at 0.9% saline concentration) for oral and 5% solutol, 5% ethanol, 90% NaCl solution (at 0.9% saline concentration) for intravenous application. At each designated time point (0.25, 0.5, 1, 2, 4 and 8 h after dosing for oral; 0.083, 0.25, 0.5, 1, 4 and 8 h after dosing for intravenous), 20 μL whole blood were collected from the tail vein into Li-heparin tubes, frozen on dry ice within 1-2 minutes of sampling and stored at −20° C. until processed for LC-MS analysis.

[3] = Rat pharmacokinetics, oral cassette dosing; design: species or system Sprague Dawley rats; details: Sprague Dawley, in vivo; for AUC(0-t) / Cmax / AUC(0-inf): female rats, oral cassette; for AUC(0-t): 0 to 8 h; for Cmax: blood; for AUC(0-inf): calculated to infinity; for half-life: female, po
Procedure: The pharmacokinetics of compounds of the present invention was evaluated in 3 female Sprague Dawley rats (8 week old) after oral cassette dosing (vehicle: 5% solutol/95% NaCl solution (at 0.9% saline concentration; application volume: 5 mL/kg) to asses the exposure of the test items. At each designated time point (0.25, 0.5, 1, 2, 4 and 8 h after dosing), 20 μL blood were collected from the tail vein into Li-heparin tubes, cooled on ice and stored at −20° C. until processed for LC-MS analysis. The obtained data is as follows: […]

[4] = human DHODH assay, read-out: IC50 range

Sequence of N-terminally truncated recombinant hDHODH enzyme (Q02127 whole entry, looked up, the tested form may be a part): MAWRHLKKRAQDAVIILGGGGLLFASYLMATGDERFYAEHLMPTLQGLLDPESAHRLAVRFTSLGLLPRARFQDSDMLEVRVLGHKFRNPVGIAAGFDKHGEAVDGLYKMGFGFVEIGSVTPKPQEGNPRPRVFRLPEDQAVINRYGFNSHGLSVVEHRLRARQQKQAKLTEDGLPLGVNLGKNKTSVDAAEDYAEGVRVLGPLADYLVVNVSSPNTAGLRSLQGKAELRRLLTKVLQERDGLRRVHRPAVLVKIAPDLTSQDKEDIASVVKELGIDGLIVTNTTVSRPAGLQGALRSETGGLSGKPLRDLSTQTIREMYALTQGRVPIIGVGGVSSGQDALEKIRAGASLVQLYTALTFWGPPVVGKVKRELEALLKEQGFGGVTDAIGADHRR

Compound | IC50 [1] | EC50 (SARS-CoV-2) | IC50 [1, 4] | also measured
[2H]C([2H])([2H])Oc1cccc(-c2cc(F)c(NC(=O)C3=C(C(=O)NOC)CCC3)c(C#N)c2)c1 [8/3] | 1 to 10 µM | < 10 µM |  | 
[2H]C([2H])([2H])ONC(=O)c1sccc1C(=O)Nc1c(F)cc(-c2cccc(OC([2H])([2H])[2H])c2)cc1F [9/2] |  | < 1 µM | < 0.1 µM | 
[2H]C([2H])([2H])Oc1cccc(-c2c(F)cc(NC(=O)c3ccsc3C(=O)NOC)cc2F)c1 [9/3] |  | < 1 µM | < 0.1 µM | 
[2H]C([2H])([2H])Oc1cccc(-c2ccc(NC(=O)c3ccsc3C(=O)NOC)c(F)c2F)c1 [9/4] |  | < 1 µM | < 0.1 µM | 
[2H]C([2H])([2H])Oc1cccc(-c2cc(F)c(NC(=O)c3ccsc3C(=O)NOC)c(F)c2F)c1 [9/5] |  | < 1 µM | < 0.1 µM | 
[2H]C([2H])([2H])ONC(=O)c1sccc1C(=O)Nc1c(F)c(F)c(-c2cccc(OC([2H])([2H])[2H])c2)c(F)c1F [9/6] |  | < 1 µM | < 0.1 µM | AUC(0-t) [2]: 25 µg·h/mL; Cmax [2]: 6700 ng/mL; F [2]: 76%; half-life [2]: 2.5 h
[2H]C([2H])([2H])Oc1cccc(-c2c(F)c(F)c(NC(=O)c3ccsc3C(=O)NOCCO)c(F)c2F)c1 [9/7] |  | < 1 µM | < 0.1 µM | 
[2H]C([2H])([2H])Oc1cccc(-c2c(F)c(F)c(NC(=O)c3occc3C(=O)NOC)c(F)c2F)c1 [9/8] |  | < 1 µM | < 0.1 µM | 
[2H]C([2H])([2H])Oc1cccc(-c2cc(F)c(NC(=O)C3=C(C(=O)NS(N)(=O)=O)COC3)c(F)c2)c1 [Example 2-1, N^3-(3,5-Difluoro-3′-(methoxy-d3)-[1,1′-biphenyl]-4-yl)-N^4-sulfamoyl-2,5-dihydrofuran-3,4-di-carboxamide] | 0.1 to 1 µM | 10 to 25 µM |  | 
[2H]C([2H])([2H])Oc1cccc(-c2c(F)c(F)c(NC(=O)C3=C(C(=O)NS(N)(=O)=O)COC3)c(F)c2F)c1 [Example 2-1/1] |  | 10 to 25 µM | < 0.1 µM | 
[2H]C([2H])([2H])Oc1cccc(-c2cc(F)c(NC(=O)C3=C(/C(N)=N/O)CCC3)c(F)c2)c1 [Example 3-1, (Z)—N-(3,5-Difluoro-3′-(methoxy-d3)-[1,1′-biphenyl]-4-yl)-2-(N-hydroxycarbamimid-oyl)cyclopent-1-ene-1-carboxamide] | > 10 µM | < 10 µM |  | 
[2H]C([2H])([2H])Oc1cccc(-c2cc(F)c(NC(=O)C3=C(c4noc(=O)[nH]4)CCC3)c(F)c2)c1 [Example 3-2, N-(3,5-Difluoro-3′-(methoxy-d3)-[1,1′-biphenyl]-4-yl)-2-(5-oxo-4,5-dihydro-1,2,4-oxadiazol-3-yl)cyclopent-1-ene-1-carboxamide] |  | < 10 µM | > 10 µM | 
[2H]C([2H])([2H])Oc1cccc(-c2c(F)c(F)c(NC(=O)C3=C(c4nn[nH]n4)COC3)c(F)c2F)c1 [Example 3/1] | 1 to 10 µM | 25 to 50 µM |  | 
[2H]C([2H])([2H])Oc1cccc(-c2cc(F)c(NC(=O)C3=C(C(=O)NOCCO)CCC3)c(F)c2)c1 [Example 4/1] | 1 to 10 µM | < 10 µM |  | 
[2H]C([2H])([2H])Oc1cccc(-c2cc(F)c(NC(=O)C3=C(C(=O)NOCC#N)CCC3)c(F)c2)c1 [Example 4/3] | 1 to 10 µM | 10 to 25 µM |  | 
[2H]C([2H])([2H])Oc1cccc(-c2cc(F)c(NC(=O)C3=C(C(=O)NOC)COC3)c(F)c2)c1 [Example 5, N^3-(3,5-Difluoro-3′-(methoxy-d3)-[1,1′-biphenyl]-4-yl)-N^4-methoxy-2,5-dihydrofuran-3,4-dicarboxamide] | 0.1 to 1 µM | < 10 µM |  | 
[2H]c1c([2H])c([2H])c(-c2c(F)c(F)c(NC(=O)C3=C(C(=O)NOC([2H])([2H])[2H])COC3)c(F)c2F)c([2H])c1[2H] [Example 5/1] |  | < 1 µM | < 0.1 µM | 
[2H]C([2H])([2H])Oc1cccc(-c2c(F)c(F)c(NC(=O)C3=C(C(=O)NOC)COC3)c(F)c2F)c1 [Example 5/4] |  | < 1 µM | < 0.1 µM | AUC(0-t) [2]: 106 µg·h/mL; Cmax [2]: 18000 ng/mL; F [2]: 39%; half-life [2]: > 8 h; AUC(0-t) [3]: 125 µM·h; Cmax [3]: 21 µM; AUC(0-inf) [3]: 271 µM·h; half-life [3]: 7.9 h
[2H]C([2H])([2H])ONC(=O)C1=C(C(=O)Nc2c(F)c(F)c(-c3cccc(OC([2H])([2H])[2H])c3)c(F)c2F)COC1 [Example 5/5] |  | < 1 µM | < 0.1 µM | AUC(0-t) [2]: 165 µg·h/mL; Cmax [2]: 70000 ng/mL; F [2]: 56%; half-life [2]: > 8 h; AUC(0-t) [3]: 113 µM·h; Cmax [3]: 19 µM; AUC(0-inf) [3]: 252 µM·h; half-life [3]: 8.4 h
CONC(=O)C1=C(C(=O)Nc2c(F)c(F)c(-c3cccc(OC)c3)c(F)c2F)COC1 [Example 5/9] |  |  | < 0.1 µM | AUC(0-t) [3]: 91 µM·h; Cmax [3]: 17 µM; AUC(0-inf) [3]: 185 µM·h; half-life [3]: 6.6 h
[2H]C([2H])([2H])Oc1cccc(-c2c(F)c(F)c(NC(=O)C3=C(C(=O)NOC)CSC3)c(F)c2F)c1 [Example 6/1] |  | < 1 µM | < 0.1 µM | 
[2H]C([2H])([2H])Oc1cccc(-c2cnc(NC(=O)C3=C(C(=O)NOC)CCC3)c(F)c2)c1 [Example 8, N^1-(3-Fluoro-5-(3-(methoxy-d3)phenyl)pyridin-2-yl)-N^2-methoxycyclopent-1-ene-1,2-dicarboxamide] | 1 to 10 µM | > 50 µM |  | 
[2H]C([2H])([2H])Oc1cccc(-c2ccc(NC(=O)C3=C(C(=O)NOC)CCC3)c3c2CCC3)c1 [Example 8/1] |  | < 10 µM | > 10 µM | 
[2H]C([2H])([2H])Oc1cccc(-c2cc(F)c(NC(=O)c3sccc3C(=O)NOC)c(F)c2)c1 [Example 10, N^2-(3,5-Difluoro-3′-(methoxy-d3)-[1,1′-biphenyl]-4-yl)-N^3-methoxythiophene-2,3-dicarboxamide] | < 0.1 µM | < 1 µM |  | 
[2H]C([2H])([2H])Oc1cccc(-c2c(F)c(F)c(NC(=O)c3ccoc3C(=O)NOC)c(F)c2F)c1 [Example 10/1] |  | < 1 µM | < 0.1 µM | 
[2H]C([2H])([2H])Oc1cccc(-c2cc(F)c(N(C)C(=O)C3=C(C(=O)NOC)CCC3)c(F)c2)c1 [Example 13, N1-(3,5-Difluoro-3′-(methoxy-d3)-[1,1′-biphenyl]-4-yl)-N2-methoxy-N1-methylcyclopent-1-ene-1,2-dicarboxamide] | > 10 µM | 10 to 25 µM |  | 
[2H]C([2H])([2H])Oc1cccc(-c2c(F)c(F)c(NC(=O)c3cocc3C(=O)NOC)c(F)c2F)c1 [Example 16/1] |  | < 1 µM | < 0.1 µM | 
[2H]C([2H])([2H])Oc1cccc(-c2c(F)c(F)c(NC(=O)c3cc(C)sc3C(=O)NOC)c(F)c2F)c1 [Example 17-1, N2-Methoxy-5-methyl-N3-(2,3,5,6-tetrafluoro-3′-(methoxy-d3)-[1,1′-biphenyl]-4-yl)thiophene-2,3-dicarboxamide] | < 0.1 µM | < 1 µM |  | 
[2H]C([2H])([2H])Oc1cccc(-c2c(F)c(F)c(NC(=O)c3sc(C)cc3C(=O)NOC)c(F)c2F)c1 [Example 17-2, N3-methoxy-5-methyl-N2-(2,3,5,6-tetrafluoro-3′-(methoxy-d3)-[1,1′-biphenyl]-4-yl)thiophene-2,3-dicarboxamide] |  | < 1 µM | < 0.1 µM | 
